Results taken from paper PMC3894558, “Chemical signatures and new drug targets for gametocytocidal drug development” (Scientific Reports, 2014).
Entries after “also recorded” stand apart in the source; their conditions may differ. Read-outs that look alike come from different tables or passages of the source. Starred links: 1 amine or outer side, 2 acyl side, 3 side chain; linkers in the order of their positions; H or OH if unused. Positions of bridges follow the written chain, without caps; N, C: chain ends. Non-standard residues stand in square brackets, D forms with d. Residues, ends and D or L forms follow the SMILES beside them. Chains are numbered I, II in the order given. Actinocin(9to1) = Cc1c2oc3c(C)ccc(C(=O)[*:1])c3nc-2c(C(=O)[*:2])c(N)c1=O; NMeV = CN[C@H](C(=O)O)C(C)C; Sar = CNCC(=O)O

Columns and labels:
[1] = tested on: HepG2 cells; experiment: cells; settings: Homo sapiens; for Emax: HepG2, read-out: % Max response
[2] = tested on: P. falciparum HB3 gametocytes; experiment: alamarBlue gametocyte viability assay, strain HB3; type: cell-based, Plasmodium falciparum
[3] = tested on: P. falciparum Dd2 gametocytes; experiment: alamarBlue gametocyte viability assay, strain Dd2; type: cell-based, Plasmodium falciparum
[4] = tested on: P. falciparum 3D7 gametocytes; experiment: alamarBlue gametocyte viability assay, strain 3D7; type: cell-based, Plasmodium falciparum
[5] = tested on: HepG2 cells; settings: for % Max response: HepG2 cells
[6] = tested on: Dd2 asexual parasites; parameters: method as in PMID 17116676; settings: cited from earlier work
[7] = tested on: mTOR; parameters: method as in PMID 21322566; settings: cited from earlier work
[8] = tested on: P. falciparum asexual blood stage parasites; experiment: asexual parasite SYBR green assay; type: cell-based, Plasmodium falciparum; settings: for IC50: Plasmodium falciparum, SYBR green assay, read-out: IC50 against asexual parasites
[9] = tested on: Plasmodium berghei ANKA; experiment: mouse-mosquito transmission model, oocysts per mosquito midgut; type: in vivo, Plasmodium berghei in mice / Anopheles stephensi
[10] = tested on: P. falciparum asexual blood stage; parameters: method as in PMID 6285190; settings: cited from earlier work
[11] = tested on: P. falciparum liver stage; parameters: method as in PMID 6285190; settings: read-out: IC50, P. falciparum development in the liver stage; cited from earlier work
[12] = parameters: method as in PMID 21322566; settings: cited from earlier work
[13] = tested on: early stages (I and II) of P. falciparum gametocytes; parameters: method as in PMID 6285190; settings: cited from earlier work
[14] = Plasmodium falciparum, HB3, strain profiling, 11 concentrations, 1:3 dilution, three times, read-out: HB3-gametocytes IC50
[15] = Plasmodium falciparum, DD2, strain profiling, 11 concentrations, 1:3 dilution, three times, read-out: Dd2-gametocytes IC50
[16] = Plasmodium falciparum, 3D7, P. falciparum 3D7 gametocytes, mean of at least 3 independent experiments, read-out: Gametocyte IC50
[17] = 11 concentrations, 1:3 dilution, Inactive = no significant activity at 46 µM
[18] = Plasmodium falciparum, HB3, read-out: HB3-gametocytes IC50
[19] = Plasmodium falciparum, DD2, read-out: Dd2-gametocytes IC50

| IC50 [2, 14] [µM] | IC50 [3, 15] [µM] | IC50 [4, 16] [µM] | IC50 in HepG2 cells [5, 17] | Molecule | Emax [1] [%] | also measured |
| --- | --- | --- | --- | --- | --- | --- |
| 0.935 | 1.05 | 0.526 | Inactive | COc1cccc2c1C(=O)c1c(O)c3c(c(O)c1C2=O)C[C@@](O)(C(=O)CO)C[C@@H]3O[C@H]1C[C@H](N)[C@H](O)[C@H](C)O1 [Adriamycin] | -35 | – |
| 0.935 | 0.526 | 0.307 | Inactive | CN(C)c1ccc2nc3ccc(=[N+](C)C)cc-3sc2c1 [Methylene blue] | -20 | – |
| – | – | – | – | CCN(CC)CCCC(C)Nc1ccnc2cc(Cl)ccc12 (stereo not shown) [Chloroquine diphosphate] | – | IC50 ([2]; Plasmodium falciparum, HB3, read-out: HB3-gametocytes IC50, strain profiling, 11 concentrations, 1:3 dilution, three times): 0.935 µM; fold less potent against Dd2 asexual parasites compared to 3D7 [6]: 10 fold; reduction of potency against Dd2 gametocytes compared to 3D7 [3]: 3.7 fold; IC50 ([3]; Plasmodium falciparum, DD2, read-out: Dd2-gametocytes IC50, strain profiling, 11 concentrations, 1:3 dilution, three times): 0.935 µM; IC50 ([4]; Plasmodium falciparum, 3D7, read-out: 3D7-gametocytes IC50): 0.253 µM |
| 0.037 | 0.053 | 0.109 | Inactive | O=C1C(=O)c2ncccc2-c2cccnc21 [Phanquinone] | 23 | – |
| 0.047 | 0.053 | 0.073 | Inactive | CO[C@H]1O[C@@H]2O[C@@]3(C)CC[C@H]4[C@H](C)CC[C@@H]([C@H]1C)[C@@]24OO3 [Artemether] | 7 | IC50 ([4]; Plasmodium falciparum, 3D7, strain profiling, 11 concentrations, 1:3 dilution, three times, read-out: 3D7-gametocytes IC50): 0.074 µM |
| 0.074 | 0.061 | 0.148 | Inactive | C[C@@H]1CC[C@H]2[C@@H](C)C(=O)O[C@@H]3O[C@@]4(C)CC[C@@H]1[C@]32OO4 [Artemisinin] | 18 | – |
| – | – | 0.935 | Inactive | CC(=O)Nc1cccc(-n2c(=O)n(C3CC3)c(=O)c3c(Nc4ccc(I)cc4F)n(C)c(=O)c(C)c32)c1 [Trametinib] | 14 | – |
| 0.059 | 0.053 | 0.077 | Inactive | C[C@H]1[C@@H](O)O[C@@H]2O[C@@]3(C)CC[C@H]4[C@H](C)CC[C@@H]1[C@@]24OO3 [Artenimol (DHA), Artenimol] | 20 | – |
| – | – | – | – | CC1(C)OC2=C(C(=O)c3ccccc3C2=O)[C@H](NCc2ccccc2)[C@@H]1O [CAY10581] | – | IC50 ([2]; strain profiling, 11 concentrations, 1:3 dilution, three times, read-out: HB3-gametocytes IC50): 0.662 µM; IC50 ([3]; strain profiling, 11 concentrations, 1:3 dilution, three times, read-out: Dd2-gametocytes IC50): 2.35 µM; IC50 ([4]; P. falciparum 3D7 gametocytes, mean of at least 3 independent experiments, read-out: Gametocyte IC50): 0.743 µM; % Max response [5]: -86%; IC50 ([5]; read-out: IC50 in HepG2 cells, 11 concentrations, 1:3 dilution, Inactive = no significant activity at 46 µM): 17.1 µM |

| Molecule | IC50 [2, 14] [µM] | IC50 [3, 15] [µM] | IC50 [4, 16] [µM] | IC50 in HepG2 cells [5, 17] | Emax [1] [%] | also measured |
| --- | --- | --- | --- | --- | --- | --- |
| S=C(SSC(=S)N1CCCCC1)N1CCCCC1 [Dicyclopentamethylenethiuram disulfide] | – | – | – | Inactive | 0 | IC50 [2, 18]: 0.743 µM; IC50 [3, 19]: 0.743 µM; IC50 ([4]; Plasmodium falciparum, P. falciparum 3D7 gametocytes, mean of at least 3 independent experiments, read-out: Gametocyte IC50): 0.274 µM |
| CN(C)C(=S)SSC(=S)N(C)C [Thiram] | 0.148 | – | 0.083 | Inactive | 23 | IC50 [3, 19]: 0.148 µM |
| C[C@H]1[C@H](OC(=O)CCC(=O)O)O[C@@H]2O[C@@]3(C)CC[C@H]4[C@H](C)CC[C@@H]1[C@@]24OO3 [Artesunate] | 0.047 | 0.03 | 0.059 | Inactive | 18 | – |
| Monensin sodium | – | – | – | Inactive | – | IC50 ([2]; read-out: HB3-gametocytes IC50, strain profiling, 11 concentrations, 1:3 dilution, three times): 0.264 µM; IC50 ([3]; read-out: Dd2-gametocytes IC50, strain profiling, 11 concentrations, 1:3 dilution, three times): 0.372 µM; IC50 ([4]; read-out: Gametocyte IC50, P. falciparum 3D7 gametocytes, mean of at least 3 independent experiments): 0.254 µM; % Max response [5]: 40% |
| Cc1c2oc3c(C)ccc(C(=O)N[C@@H]4C(=O)N[C@H](C(C)C)C(=O)N5CCC[C@H]5C(=O)N(C)CC(=O)N(C)[C@@H](C(C)C)C(=O)O[C@@H]4C)c3nc-2c(C(=O)N[C@@H]2C(=O)N[C@H](C(C)C)C(=O)N3CCC[C@H]3C(=O)N(C)CC(=O)N(C)[C@@H](C(C)C)C(=O)O[C@@H]2C)c(N)c1=O [Dactinomycin] (I: T[dV]P[Sar][NMeV] / II: T[dV]P[Sar][NMeV]; ester I:1-I:C, II:1-II:C; linker I:N-II:N via Actinocin(9to1)) | – | – | – | Inactive | 1 | IC50 [2, 18]: 0.019 µM; IC50 [3, 19]: 0.033 µM; IC50 ([4]; Plasmodium falciparum, 3D7, read-out: Gametocyte IC50): 0.015 µM |
| CCC(=O)N1CCN(c2ccc(-n3c(=O)ccc4cnc5ccc(-c6cnc7ccccc7c6)cc5c43)cc2C(F)(F)F)CC1 [Torin 1, 1-[4-[4-(1-Oxopropyl)-1-piperazinyl]-3-(trifluoromethyl)phenyl]-9-(3-quinolinyl)-benzo[h]-1,6-naphthyridin-2(1H)-one] | 3.72 | 5.26 | – | – | – | IC50 [7]: […]; times less potent than Torin 2 against asexual parasites [8]: […]; IC50 [8]: 0.215 µM; fold less potent than Torin 2 against gametocytes [4]: […]; IC50 ([4]; Plasmodium falciparum, 3D7, read-out: 3D7-gametocytes IC50, strain profiling, 11 concentrations, 1:3 dilution, three times): 6.62 µM; IC50 ([4]; Plasmodium falciparum, 3D7, read-out: Gametocyte IC50, P. falciparum 3D7 gametocytes, mean of at least 3 independent experiments): 1.6 µM |
| CCN(CCO)CCCOc1ccc2c(Nc3cc(CC(=O)Nc4cccc(F)c4)n[nH]3)ncnc2c1 [AZD-1152-HQPA] | 1.48 | 1.48 | 0.743 | Inactive | 11 | – |
| Nc1ccc(-c2ccc3ncc4ccc(=O)n(-c5cccc(C(F)(F)F)c5)c4c3c2)cn1 [Torin 2, 9-(6-Amino-3-pyridinyl)-1-[3-(trifluoromethyl)phenyl]-benzo[h]-1,6-naphthyridin-2(1H)-one] | 0.015 | 0.012 | 0.008 | – | -46 | exflagellation just prior to mosquito feed, drug- vs vehicle-treated mice ([9]; 1.5 hrs after drug treatment): no difference; also recorded: equivalent to that of the vehicle-treated controls; oocyst production in fed mosquitoes ([9]; single dose 2 mg/kg i.v.): significantly reduced; oocyst production in fed mosquitoes ([9]; single dose 4 mg/kg i.v., 4 mg/kg): almost completely eliminated; also recorded: nearly complete elimination; oocyst production in fed mosquitoes ([9]; two 4 mg/kg doses i.v. 3 hrs apart, feed 1.5 hrs after final treatment): completely block; also recorded: completely prevented; IC50 ([1]; HepG2, read-out: IC50 in HepG2 cells): 9.35 µM; IC50 [10]: 0.0014 µM; IC50 [11]: 0.0011 µM; oral bioavailability [12]: 51%; IC50 [13]: 0.0066 µM; IC50 [7]: […]; IC50 [8]: 0.00275 µM |
